{"source": "patent US8614342B2", "about": "“Process for preparing epoxycarboxylic esters” (BASF SE, priority 2012, dated 2013)", "conditions": "20° C."}
{"compound": "COC(=O)C1CO1", "note": "(stereo not shown) [MEP, Methyl Epoxy Propionate]", "values": [{"measurement": "solubility of MEP in water", "result": "43 g/10 g of H2O"}]}
